Experimental data published in the supplement of paper PMC10307832.

Assays:
Assay in all cases: relative viability (nuclei count vs DMSO), 5 days (fraction); higher = more cells survive
[1] = compound: CC[C@@H](C)CNCC(=O)N1CCC2=C([C@@H]1COC3=CC=CC(=C3)C)C=CS2 [RU-SKI 43] + Cc1nc(NC(=O)N2CCC[C@H]2C(N)=O)sc1-c1ccnc(C(C)(C)C(F)(F)F)c1 [Alpelisib] (partner 2 µM)
In short: (§1)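 Lung cancer cell lines were pin-tool dosed in 1536-well plates on the day after seeding, with either a lone drug or a fixed anchor-drug dose plus five library-drug doses (not always all listed) in √10 steps. Nuclei were counted on 4× images after 5 days. Relative viability is the ratio of treated-well to vehicle-well nuclei counts, with each value a median of duplicate plates.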

[2] = compound: CCc1c2c(nc3ccc(OC(=O)N4CCC(N5CCCCC5)CC4)cc13)-c1cc3c(c(=O)n1C2)COC(=O)[C@]3(O)CC [Irinotecan] + C[C@@H](Oc1cc(-c2cnn(C3CCNCC3)c2)cnc1N)c1c(Cl)ccc(F)c1Cl [Crizotinib] (partner 1 µM)
In short: as §1

[3] = compound: CCc1c2c(nc3ccc(OC(=O)N4CCC(N5CCCCC5)CC4)cc13)-c1cc3c(c(=O)n1C2)COC(=O)[C@]3(O)CC [Irinotecan] + Cc1nc(NC(=O)N2CCC[C@H]2C(N)=O)sc1-c1ccnc(C(C)(C)C(F)(F)F)c1 [Alpelisib] (partner 2 µM)
In short: as §1

[4] = compound: Cn1cc(-c2cnc3ccc4ccc(CS(=O)(=O)NCc5ccccn5)cc4c(=O)c3c2)cn1 [MK-8033] + Cc1nc(NC(=O)N2CCC[C@H]2C(N)=O)sc1-c1ccnc(C(C)(C)C(F)(F)F)c1 [Alpelisib] (partner 2 µM)
In short: as §1

Cell Line	relative viability ([1]; first compound 0.1 µM)	relative viability ([1]; first compound 0.3162 µM)	relative viability ([1]; first compound 1 µM)	relative viability ([1]; first compound 3.162 µM)	relative viability ([1]; first compound 10 µM)	relative viability ([2]; first compound 0.6325 µM)	relative viability ([2]; first compound 2 µM)	relative viability ([2]; first compound 6.325 µM)	relative viability ([2]; first compound 20 µM)	relative viability ([3]; first compound 0.6325 µM)	relative viability ([3]; first compound 2 µM)	relative viability ([3]; first compound 6.325 µM)	relative viability ([3]; first compound 20 µM)	relative viability ([4]; first compound 0.02 µM)	relative viability ([4]; first compound 0.06325 µM)	relative viability ([4]; first compound 0.2 µM)	relative viability ([4]; first compound 0.6325 µM)	relative viability ([4]; first compound 2 µM)
NCI-H460	0.44	0.657	0.6	0.5	0.36	0.709	0.239	0.0835	0.0573	0.461	0.339	0.0811	0.0821	0.496	0.368	0.348	0.4	0.435
NCI-H520	0.968	1.01	1.09	0.918	0.793	0.639	0.524	0.279	0.225	0.751	0.733	0.282	0.203	0.806	0.841	0.832	0.905	0.871
NCI-H596	0.395	0.481	0.508	0.6	0.482	0.945	0.924	0.741	0.68	0.639	0.548	0.483	0.557	0.436	0.511	0.462	0.46	0.477
NCI-H647	1.2	1.56	1.51	1.11	1.1	0.852	0.365	0.227	0.198	0.816	0.435	0.197	0.202	1.18	1.02	0.929	1.16	1.07
NCI-H650	1.14	0.981	1.12		1.07	0.543	0.436	0.258	0.235	0.889	0.432	0.229	0.323	1.08	1.1	1.01	1.16	1.17
NCI-H661	0.647	0.668	0.846	0.464	0.404	0.923	0.842		0.517	0.798	0.538	0.277	0.269	0.581	0.261	0.634	0.592	0.778
NCI-H727	0.571	0.477	0.729	0.249	0.479	0.366	0.556	0.497	0.447	0.324	0.433	0.354	0.422	0.502	0.615	0.589	0.577	0.589
NCI-H838	0.975	0.969	0.966	0.93	1.02	0.769	0.679	0.365	0.276	1.28	0.962	0.354	0.295	1	0.979	0.94	0.98	0.974
NCI-H1299	1.18	1.14	1.03	1.08	1.15	0.747	0.794	0.453	0.173	0.919	0.918	0.801	0.36	0.985	1.02	1.07	0.99	1.1
NCI-H1355	0.826	0.877	0.924	0.956	0.921	0.896	0.407	0.234	0.233	0.711	0.4	0.222	0.237	0.766	0.74	0.72	0.87	0.786
NCI-H1437	0.945	1.26	0.964	1.07	0.921	0.962	0.664	0.323	0.24	0.75	0.67	0.262	0.147	0.966	0.905	0.883	0.941	0.956
NCI-H1563	0.862	0.925	0.903	0.853	0.862	0.865	0.882	0.865	0.344	0.86	0.912	0.875	0.654	1.02	0.918	0.883	1.02	0.93
NCI-H1651	1.08	1.25	0.953	0.926	0.936		0.693	0.479	0.135	0.862	0.705	0.246	0.205	0.888	0.808	0.931	0.898	0.982
NCI-H1666	1.09	1.09	0.966	0.789	0.582	0.617	0.464	0.47	0.357	0.697	0.552	0.486	0.337	0.937	1.01	0.874	0.998	0.942
NCI-H1703	0.329	0.31	0.338	0.339	0.239	0.737	0.58	0.447	0.182	0.305	0.482	0.385	0.136	0.407	0.273	0.354	0.266	0.309
NCI-H1734	0.595	0.698	0.755	0.672	0.671	0.618	0.336	0.226	0.177	0.625	0.331	0.143	0.233	0.628	0.57	0.644	0.654	0.72
NCI-H1755	0.97	1.21	1.04	1.05	0.916	0.712	0.497	0.332	0.451	0.822	0.434	0.292	0.363	0.931	0.883	0.857	0.909	0.849
NCI-H1792	0.574	1.1	0.736	0.886	0.735	0.918	1.05	0.536	0.239	0.711	0.673	0.329	0.11	0.729	0.59	0.768	0.776	0.693

Cell Line	relative viability ([1]; first compound 0.1 µM)	relative viability ([1]; first compound 0.3162 µM)	relative viability ([1]; first compound 1 µM)	relative viability ([1]; first compound 3.162 µM)	relative viability ([1]; first compound 10 µM)	relative viability ([2]; first compound 0.6325 µM)	relative viability ([2]; first compound 2 µM)	relative viability ([2]; first compound 6.325 µM)	relative viability ([2]; first compound 20 µM)	relative viability ([3]; first compound 0.6325 µM)	relative viability ([3]; first compound 2 µM)	relative viability ([3]; first compound 6.325 µM)	relative viability ([3]; first compound 20 µM)	relative viability ([4]; first compound 0.02 µM)	relative viability ([4]; first compound 0.06325 µM)	relative viability ([4]; first compound 0.2 µM)	relative viability ([4]; first compound 0.6325 µM)	relative viability ([4]; first compound 2 µM)
NCI-H1915	0.991	1.14	1.12	1.05	1.04	0.417	0.369	0.178	0.227	0.3	0.217	0.164	0.155	1.02	1	1.04	1.11	1.02
NCI-H1944	0.888	0.815	0.843	0.872	0.786	0.561	0.323	0.231	0.254	0.58	0.271	0.168	0.167	0.82		0.747	0.849	0.873
NCI-H1975	0.692	0.717	0.806	0.66	0.583	0.914	1	0.401	0.329	0.654	0.68	0.324	0.195	0.604	0.557	0.584	0.571	0.649
NCI-H1993	0.655	0.678	0.702	0.701	0.66	0.897	0.656	0.671	0.664	0.617	0.643	0.63	0.68	0.612	0.611	0.649	0.714	0.675
NCI-H2009	1.18	1.3	1.2	1.15	1.13	0.912	0.857	0.233	0.224	0.838	0.591	0.26	0.135	1.13	1.12	1.09	1.11	1.14
NCI-H2023	0.62	0.722	0.6	0.605	0.521	0.676	0.532	0.205	0.0482	0.607	0.468	0.202	0.0912	0.655	0.516	0.5	0.474	0.521
NCI-H2085	0.93	1.02	1.09	1.01	0.845	0.845	0.622	0.511	0.537	0.888	0.75	0.458	0.482	0.873	0.936	0.925	0.823	0.971
NCI-H2087	1	1.4	1.12	1.11	0.788	0.476	0.396	0.259	0.203	0.437	0.22	0.215	0.211	1.15	1.05	1.05	1.05	1
NCI-H2126	0.769	0.82	0.825	0.831	0.727		0.58	0.361	0.354		0.384	0.289	0.312	0.749	0.731	0.763	0.772	0.702
NCI-H2170	0.78	0.855	0.86	0.826	0.808	1.1	0.588	0.309	0.186	0.929	0.399	0.3	0.216	0.652	0.758	0.691	0.773	0.772
NCI-H2228	0.667	0.768	1.08	0.704	0.423	0.597	0.518	0.39	0.433	0.791	0.598	0.431	0.408	0.815	0.551	0.629	0.768	0.841
NCI-H2347	1.1	1.19	1.13	1.15	0.949	0.571	0.476	0.556	0.494	0.858	0.763	0.482	0.464	1.05	0.991	1.02	1.03	0.975
NCI-H2405	0.8	0.787	0.651	0.789	0.721	0.788	0.779	0.355	0.274		0.678	0.291	0.0889	0.732	0.731	0.699	0.765	0.736
NCI-H3122	0.771	0.7	0.743	0.935	0.734	0.25	0.205	0.173	0.163	0.824	0.301	0.244	0.255	0.817	0.755	0.777	0.853	0.859
PC-3 [JPC-3]	0.988	1.03	1.11	1.08	0.998	0.847	0.493	0.332	0.331	0.814	0.413	0.319	0.305	0.959		0.998	1	0.956
PC-14	0.9	0.91	1.04	0.938	0.956	0.873	0.695	0.2	0.194	0.925	0.9	0.465	0.184	0.888	0.878	0.87	0.898	0.804
RERF-LC-KJ	0.826	0.98	0.734	0.821	0.802	0.785	0.533	0.322	0.342		0.835	0.501	0.454	0.735	0.76	0.698	0.777	0.774
